This experiment in a line: Inhibitory activity against Hog kidney Na+, K+ -Dependent ATPase. More on the design: species or system Sus scrofa. The settings on record: read-out: I50.

As for `C[C@]12CC[C@H](O[C@@H]3O[C@@H](CO)[C@H](O)[C@H](O)[C@@H]3O)CC1CC[C@@H]1[C@@H]2CC[C@]2(C)[C@@H](C3=CC(=O)OC3)CC[C@@]12O` (stereo partly drawn), the IC50 was determined as 0.0645 µM. Consider `C[C@]12CC[C@H](O[C@@H]3O[C@@H](CO)[C@@H](O)[C@H](O)[C@@H]3O)CC1CC[C@@H]1[C@@H]2CC[C@]2(C)[C@@H](C3=CC(=O)OC3)CC[C@@]12O` (stereo partly drawn), for which the IC50 stood at 0.0117 µM. For `C[C@@H]1O[C@@H](O[C@H]2CC[C@@]3(C)[C@@H](CC[C@@H]4[C@@H]3CC[C@]3(C)[C@@H](C5=CC(=O)OC5)CC[C@@]43O)C2)C[C@@H]2OC(C)(C)O[C@H]12`, the IC50 stood at 0.0418 µM. Regarding `C[C@@H]1O[C@@H](O[C@H]2CC[C@@]3(C)[C@@H](CC[C@@H]4[C@@H]3CC[C@]3(C)[C@@H](C5=CC(=O)OC5)CC[C@@]43O)C2)C[C@H](O)[C@@H]1O`, the IC50 was found to be 0.00704 µM. Turning to `C[C@]12CC[C@H](O[C@H]3C[C@H](O)[C@H](O)[C@H](CO)O3)C[C@@H]1CC[C@@H]1[C@@H]2CC[C@]2(C)[C@@H](C3=CC(=O)OC3)CC[C@@]12O`, the IC50 was found to be 0.0107 µM. `C[C@]12CC[C@H](O[C@@H]3C[C@@H](O)[C@H](O)[C@H](CO)O3)C[C@@H]1CC[C@@H]1[C@@H]2CC[C@]2(C)[C@@H](C3=CC(=O)OC3)CC[C@@]12O`: the IC50 came out at 0.0282 µM.

On to `C[C@]12CC[C@H](O[C@@H]3C[C@H](O)[C@H](O)[C@H](CO)O3)C[C@@H]1CC[C@@H]1[C@@H]2CC[C@]2(C)[C@@H](C3=CC(=O)OC3)CC[C@@]12O`, for which the IC50 was found to be 0.0933 µM.

As for `C[C@]12CC[C@H](O)C[C@H]1CC[C@@H]1[C@@H]2CC[C@]2(C)[C@@H](C3=CC(=O)OC3)CC[C@]12O` [DIGITOXIGENIN], the IC50 came to 0.117 µM.

The record behind these values is ChEMBL document CHEMBL1122577, “Cardiac glycosides. 1. A systematic study of digitoxigenin D-glycosides” (J Med Chem, 1984).
